Measured values published in patent US8987262B2, “Use of a beta blocker for the manufacture of a medicament for the treatment of hemangiomas” (Universite de Bordeaux, priority 2007, dated 2015).
Like-named read-outs stand apart in the source and are kept apart here.

Experiments:
[1] = test system: infantile capillary hemangiomas (IH); test: Treatment of infants with infantile hemangioma (case reports, Examples 1-3)
[2] = test system: cleaved caspase-3 and 8; test: Immuno-histochemical analysis of IH biopsy with anti-cleaved caspase-3 and 8 antibodies; set-up: species or system human; settings: Example 2, arm biopsy at 3 months of age
Experimental: Prednisolone treatment was progressively tapered down while the IH continued to improve. At 3 months of age a biopsy sample was obtained on the arm, showing a typical IH.
Reintroduction of propranolol treatment at 2 mg/kg/day was successful after only 24 hours.

[3] = test system: subglottic hemangioma; settings: cited from earlier work
[4] = test system: infantile hemangiomas; settings: cited from earlier work
[5] = test system: HIF-1alpha and VEGF; settings: pressure-overloaded rat heart; cited from earlier work
[6] = test system: head and neck IH; settings: oral suspension up to 4 mg/kg/day, 24 weeks; cited from earlier work
[7] = test system: IH; settings: in vivo; cited from earlier work
[8] = Case 4, 3 mg/kg/day, stenosis at referral 90%
[9] = Case 1, 8 mg/kg/day, stenosis at referral 90%
[10] = Case 2, 8 mg/kg/day, stenosis at referral 70%
[11] = Case 3, 8 mg/kg/day, stenosis at referral 90%

**Q.** Which results are given for `CC(C)NCC(O)COc1cccc2ccccc12` (racemic) [propranolol]?
**A.** change of the hemangioma after onset of treatment ([1]; Example 1, baby, nasal pyramid IH, 3 mg/kg/day, the day after onset): changed in color from intense red to purple, and softened; aspect of the IH ([1]; Example 1, still under propranolol): completely flat; parotidal and axillary subcutaneous hemangiomatous components ([1]; Example 2, 2 mg/kg/d): not palpable; time to softening of the lesions after onset ([1]; Example 2, 2 mg/kg/day): 12 h; time to success after reintroduction of treatment ([1]; Example 2, 2 mg/kg/day): 24 h; change in size of hemangioma ([1]; Example 2, 2 mg/kg/day, seven days after onset): dramatic reduction in size of the subcutaneous component of the hemangioma; effect of treatment interruption ([1]; Example 2, 3-day interruption, superior eyelid and parotidal areas): mild increase in size of the hemangioma; outcome after treatment stopped ([1]; Example 2, stopped): without any re-growth of the IH; hemodynamic modifications ([1]; Example 3, 7 days after onset, 2 mg/kg/day): without any hemodynamic modifications; IH thickness (ultrasonography) ([1]; Example 3, 7 days after onset, versus 12 mm before): 6 mm; IH diameter (ultrasonography) ([1]; Example 3, 7 days after onset, versus 32 mm before): 21 mm; time to flattening of the lesion ([1]; Example 3, periocular IH, 2 mg/kg/day): 12 h; outcome after treatment stopped ([1]; Example 3, stopped after one month): novel increase in size of the IH; outcome after treatment stopped ([1]; Example 3, stopped at 8 months): without any rebound of the hemangioma; aspect of the IH ([1]; Example 3, treatment resumed): flat and had faded in color; treatment failure ([1]; all treated children (Examples 1-3 and seven other)): No treatment failure; cleaved caspase-3 and 8 immunostaining (proapoptotic role) [2]: did not demonstrate positive immunostaining; Beta-blocker efficiency [3, 8]: success; Laryngeal stenosis during beta-blocker treatment (%) [3, 8]: 5%

**Q.** With `CCCC(=O)Nc1ccc(OCC(O)CNC(C)C)c(C(C)=O)c1` (centres unmarked) [Acebutolol] as the compound, how does the “overall result of study” value ([3]; 8 mg/kg/day) read?
**A.** able to treat hemangiomas

**Q.** What about the Beta-blocker efficiency [3, 9] of the same compound?
**A.** Failure

**Q.** And the “Laryngeal stenosis during beta-blocker treatment (%)” value [3, 9]?
**A.** 90%

**Q.** And the Beta-blocker efficiency [3, 10]?
**A.** success

**Q.** What about the “Laryngeal stenosis during beta-blocker treatment (%)” value [3, 10] of the same compound?
**A.** 10%

**Q.** And the Beta-blocker efficiency [3, 11]?
**A.** success

**Q.** What about the “Laryngeal stenosis during beta-blocker treatment (%)” value [3, 11] of the same compound?
**A.** 5%

**Q.** Which “Mean VAS ± Standard deviation” value ([4]; Age at treatment inititation (mos) <6) does the source give for `CC(C)(C)NC[C@H](O)COc1nsnc1N1CCOCC1` [Timolol, timolol] here?
**A.** 45 ± 27

**Q.** And the “Mean VAS ± Standard deviation” value ([4]; Age at treatment inititation (mos) >6)?
**A.** 47 ± 30

**Q.** And the “Mean VAS ± Standard deviation” value ([4]; Depth of hemangioma: Deep)?
**A.** 32 ± 28

**Q.** And the “Mean VAS ± Standard deviation” value ([4]; Depth of hemangioma: Superficial)?
**A.** 53 ± 29

**Q.** And the “Mean VAS ± Standard deviation” value ([4]; Location: Facial)?
**A.** 45 ± 29

**Q.** What about the “Mean VAS ± Standard deviation” value ([4]; Location: Nonfacial) of the same compound?
**A.** 43 ± 32

**Q.** And the “Mean VAS ± Standard deviation” value ([4]; Timolol concentration (%) 0.1)?
**A.** 24 ± 29

**Q.** And the “Mean VAS ± Standard deviation” value ([4]; Timolol concentration (%) 0.5)?
**A.** 48 ± 28

**Q.** What about the “Mean VAS ± Standard deviation” value ([4]; Treatment duration (mos) <3) of the same compound?
**A.** 38 ± 28

**Q.** And the “Mean VAS ± Standard deviation” value ([4]; Treatment duration (mos) >3)?
**A.** 52 ± 30

**Q.** And the “overall result of study” value ([4]; timolol maleate 0.1% or 0.5% gel-forming solution)?
**A.** able to treat hemangiomas

**Q.** With `C[C@H]1C[C@H]2[C@@H]3CCC4=CC(=O)C=C[C@]4(C)[C@@]3(F)[C@@H](O)C[C@]2(C)[C@@]1(O)C(=O)CO` [betamethasone] as the compound, how does the cardiac sonography finding ([1]; Example 1, under systemic steroid) read?
**A.** obstructive hypertrophic myocardiopathy

**Q.** Which “effect on HIF-1alpha and VEGF protein and mRNA” value [5] does the source give for `COc1ccccc1OCCNCC(O)COc1cccc2[nH]c3ccccc3c12` (centres unmarked) [cardivedilol] here?
**A.** reverses both protein and mRNA of HIF-1alpha and VEGF to the baseline values

**Q.** Which “overall result of study” value [6] does the source give for `CC(C)(C)NCC(O)COc1cccc2c1CC(O)C(O)C2` (centres unmarked) [nadolol] here?
**A.** able to treat efficiently hemangiomas

**Q.** For `C[C@]12C=CC(=O)C=C1CC[C@@H]1[C@@H]2[C@@H](O)C[C@@]2(C)[C@H]1CC[C@]2(O)C(=O)CO` [prednisolone], which effect on hemangioma ([1]; Example 1, one-month treatment at 3 mg/kg/day) is on record?
**A.** stabilized, but nasal necrosis progressed

**Q.** What about the “effect on IH” value ([1]; Example 2, 3 mg/kg/day 2 weeks then 5 mg/kg/day 2 weeks) of the same compound?
**A.** continued to enlarge

**Q.** What about the CS efficiency ([3]; Case 1, before beta-blocker treatment, (2 mg/kg/day)) of the same compound?
**A.** CS-persistant

**Q.** What about the CS efficiency ([3]; Case 2, before beta-blocker treatment, (1 mg/kg/day)) of the same compound?
**A.** CS-dependent

**Q.** And the CS efficiency ([3]; Case 3, before beta-blocker treatment, (1 mg/kg/day))?
**A.** CS-dependent

**Q.** And the CS efficiency ([3]; Case 4, before beta-blocker treatment, (1.5 mg/kg/day))?
**A.** CS-dependent

**Q.** With `CC[C@]1(O)C[C@H]2CN(CCc3c([nH]c4ccccc34)[C@@](C(=O)OC)(c3cc4c(cc3OC)N(C=O)[C@H]3[C@@](O)(C(=O)OC)[C@H](OC(C)=O)[C@]5(CC)C=CCN6CC[C@]43[C@@H]65)C2)C1` [vincristine] as the compound, how does the well-known downsides [7] read?
**A.** peripheral neuropathy, constipation, and hematologic toxicity
